Reference: US20070191400A1, “Pharmaceutical compositions comprising anti-inflammatory quinazolinecarboxamide derivatives” (Rimonyx Pharmaceuticals Ltd., priority 2004, published 2007)
One block for each compound: values may come before it.

Legend:
[1] = biological target: T1, Recombinant Human L-Selectin/IgG binding to heparin (Homo sapiens, UniProt P14151); experiment: Inhibition of L-selectin binding to heparin (ELISA, immobilized heparin-BSA); settings: for IC50: compounds tested at 0.01 to 300 μM, representative results, read-out: IC-50, inhibition of L-Selectin binding to heparin; for inhibition at 30 µM: read-out: % Inhibition at 30 microMolar conc. (L-Selectin binding to heparin)
T1 construct: purchased Research and Development Systems 728-LS
T1 sequence (P14151 39-332 limits assumed): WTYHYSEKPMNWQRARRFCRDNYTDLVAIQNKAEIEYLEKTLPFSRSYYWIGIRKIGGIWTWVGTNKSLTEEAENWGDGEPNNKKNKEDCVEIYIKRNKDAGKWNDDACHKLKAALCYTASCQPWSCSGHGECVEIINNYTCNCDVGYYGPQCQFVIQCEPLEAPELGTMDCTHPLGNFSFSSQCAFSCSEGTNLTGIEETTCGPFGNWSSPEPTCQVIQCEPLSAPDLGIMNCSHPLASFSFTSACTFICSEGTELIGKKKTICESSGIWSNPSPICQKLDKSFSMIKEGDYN
Protocol: An in vitro assay was used to assess the ability of test compounds according to formula I to inhibit the interactions of L-selectin with HS-GAGs. The assay was suitable for determining the concentration required for 50% inhibition (IC-50) for each specific compound. In the assay, the GAG used was heparin. Thus, porcine intestinal mucosa heparin conjugated to Bovine Serum Albumin (Heparin-BSA; Sigma Cat. No. H0403) at 5 mg/ml in Phosphate-Buffered Saline (PBS; pH 6.5) was added to a 96-well polystyrene ELISA plate (NUNC Cat. No. 442404; 0.1 ml per well) and incubated over night at 4° C. Following the incubation, the plate was washed thoroughly, by immersion, with de-ionized water and PBS (pH 6.5). The ELISA plate was then blocked with BSA (ICN Cat. No.160069, 3%, 200 μl per well) for 1 hour at room temperature. Following blocking, the plate was washed with de-ionized water, and then with PBS (pH 6.5) containing Tween 20 (Sigma Cat. No. P-1379, 0.05%). Compounds were synthesized or purchased from suppliers of chemical compounds such as ChemDiv Labs (San Diego, Calif.), dissolved in DMSO, diluted in PBS and added to the wells at various concentrations in the range of 0.01 to 300 μM. Recombinant Human L-Selectin/IgG (Research and Development Systems Cat. No.728-LS) dissolved in PBS supplemented with BSA (0.1%) and calcium chloride (1 mM) was added to the ELISA plate (100 μl per well) and incubated for 60 minutes at room temperature with shaking. Following incubation, the plate was washed with de-ionized water and three times with PBS (pH 6.5) containing Tween 20. Anti-Human IgG Peroxidase Conjugate (1:5000; Sigma Product No. A8667) diluted in PBS supplemented with BSA (0.1%) and calcium chloride (1 mM) was added to the ELISA plate (100 μl per well) and incubated for 30 minutes at room temperature with shaking. The plate was then washed with de-ionized water and three times with PBS (pH 6.5) containing Tween 20. The peroxidase substrate chromogen tetramethyl benzidine (TMB; Dako Cat. No. S1599) was added (100 μl per well) to the ELISA plate and incubated at room temperature. After 15 minutes, ELISA Stop Solution (hydrochloric acid 1N, sulfuric acid 3N) was added (200 μl per well) to stop the peroxidase catalyzed colorimetric reaction. The Optical Density (OD) of the samples was measured at 450 nm using an ELISA plate reader (Dynatech MR5000). Data were analyzed with Graphpad Prism software and IC-50 values were established.

[2] = test system: BALB/c mice; experiment: Carrageenan-induced paw edema; assay type: in vivo, mouse
Protocol: Acute edema was induced in the left hind paw of BALB/c mice (12 mice/group) by injecting 0.02 ml of freshly prepared solution of 2% carrageenan (Sigma) after 60 min of test compound administration (Torres, S. R. et al., European Journal of Pharmacology 408: 199-211, 2000). […], which served as a control. Carrageenan was injected under the plantar region of […] and the paw thickness was measured at 2,4 and 24 hours after carrageenan challenge using a Mitutoyo engineer's micrometer expressed as the difference between right and left pad as mean ±SEM.

[3] = test system: BALB/c mice; experiment: Delayed-type hypersensitivity (DTH), oxazolone mouse ear-swelling test; assay type: in vivo; settings: 25 mg/kg per os, 1 hr prior to challenge; 24 hours after challenge
Protocol: BALB/c mice (Velaz, Prague, Czech Republic; 8 weeks old; 15 animals per group) were sensitized by topical application of a 2% oxazolone (4-ethoxymethylene -2-phenyl-2-oxazoline-5-one; Sigma, St Louis, Mo.) solution in acetone/olive oil (4:1 vol/vol) to shaved abdomen (50 μl) and to each paw (5 μl) (Lange-Asschenfeldt B. et al., Blood 99:538-545, 2002). Five days after sensitization, right ears were challenged by topical application of 10 μl of a 1% oxazolone solution, whereas left ears were treated with vehicle alone. Compounds were administered 1 hr prior to challenge. The extent of inflammation was measured 24 hours after challenge, using the mouse ear-swelling test. Animals were numbered (tail marking) and weighed and the thickness of both ears was recorded with a constant-loading dial micrometer (Mitutoyo, Tokyo). The unpaired Student t-test was used for statistical analyses.

[4] = biological target: T2, CMV envelope glycoprotein B binding to immobilized heparin (Human cytomegalovirus, UniProt P06473); experiment: Inhibition of CMV envelope glycoprotein B binding to immobilized heparin (ELISA); settings: for inhibition at 100 µM: read-out: % Inhibition at 100 microMolar conc. (CMV envelope glycoprotein B binding to immobilized heparin); for inhibition at 30 µM: read-out: % Inhibition at 30 microMolar conc. (CMV envelope glycoprotein B binding to immobilized heparin)
T2 construct: purchased Research Diagnostics, INC; RDI-RCMVAG-B
T2 sequence (P06473 32-906): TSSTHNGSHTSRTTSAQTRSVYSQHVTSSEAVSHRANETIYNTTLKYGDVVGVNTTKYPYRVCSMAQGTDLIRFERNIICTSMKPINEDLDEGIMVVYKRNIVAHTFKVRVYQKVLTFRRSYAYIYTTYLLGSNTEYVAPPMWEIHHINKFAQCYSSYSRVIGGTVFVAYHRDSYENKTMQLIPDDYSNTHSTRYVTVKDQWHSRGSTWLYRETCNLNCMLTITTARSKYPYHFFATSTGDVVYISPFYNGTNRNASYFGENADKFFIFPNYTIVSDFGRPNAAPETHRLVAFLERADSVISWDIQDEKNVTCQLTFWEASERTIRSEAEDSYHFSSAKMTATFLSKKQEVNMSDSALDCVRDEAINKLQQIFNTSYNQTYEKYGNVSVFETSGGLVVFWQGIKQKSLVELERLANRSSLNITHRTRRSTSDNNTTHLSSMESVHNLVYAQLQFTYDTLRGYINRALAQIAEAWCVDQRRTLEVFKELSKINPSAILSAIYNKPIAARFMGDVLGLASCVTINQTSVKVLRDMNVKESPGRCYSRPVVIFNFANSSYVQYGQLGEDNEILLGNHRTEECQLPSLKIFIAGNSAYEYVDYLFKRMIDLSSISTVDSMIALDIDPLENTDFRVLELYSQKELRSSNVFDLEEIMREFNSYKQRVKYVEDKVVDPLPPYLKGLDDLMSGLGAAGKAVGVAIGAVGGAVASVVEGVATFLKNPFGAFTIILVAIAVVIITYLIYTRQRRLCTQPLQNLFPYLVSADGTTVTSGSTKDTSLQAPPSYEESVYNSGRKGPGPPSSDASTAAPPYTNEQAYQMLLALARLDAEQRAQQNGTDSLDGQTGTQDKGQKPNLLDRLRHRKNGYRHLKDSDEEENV
Protocol: Porcine intestinal mucosa heparin conjugated to Bovine Serum Albumin (Heparin-BSA; Sigma Cat. No. H0403) at 5 mg/ml in Phosphate-Buffered Saline (PBS; pH 6.5) was added to a 96-well polystyrene ELISA plate (NUNC Cat. No. 442404; 0.1 ml per well) and incubated over night at 4° C. Following the incubation, the plate was washed consecutively, by immersion, with de-ionized water and PBS (pH 6.5). The ELISA plate was then blocked with BSA (ICN Cat. No. 160069, 3%, 200 μl per well) for 1 hour at room temperature. Following blocking, the plate was washed with de-ionized water, and then with PBS (pH 6.5) plus Tween 20 (0.05%). CMV envelope glycoprotein B (Research Diagnostics, INC. Cat. No. RDI-RCMVAG-B) dissolved in PBS (supplemented with BSA (0.1%)) was added to the ELISA plate (100 μl per well) and incubated for 60 minutes at room temperature with shaking. Following incubation, the plate was washed with de-ionized water and with PBS (pH 6.5) plus Tween. Mouse anti-human Cytomegalovirus gB antibody (Research Diagnostics, INC. Cat. No. RDI-CMVG Babm) diluted in PBS (supplemented with BSA(0.1%)), 1:2000, was added to the ELISA plate (100 μl per well) and incubated for 90 minutes at room temperature with shaking. Following the incubation, the plate was washed with de-ionized water and PBS (pH 6.5) plus Tween. Goat anti-Mouse IgG (H&L) Peroxidase Conjugated antibody (Chemicon International, Inc. Cat. No. AP124P) diluted in PBS (supplemented with BSA (0.1%)), 1:1000, was added to the ELISA plate (100 μl per well) and incubated for 30 minutes at room temperature with shaking. Following the incubation, the plate was washed with de-ionized water and with PBS (pH 6.5) plus Tween. The peroxidase substrate chromogen, TMB (Dako Cat. No. S1599) was added (100 μl per well) to the ELISA plate and incubated at room temperature. After 15 minutes, ELISA Stop Solution (hydrochloric acid iN, sulfuric acid 3N) was added (200 μl per well) to stop the peroxidase catalyzed colorimetric reaction. The Optical Density (OD) of the samples was measured at 450 nm using an ELISA plate reader (Dynatech MR5000).
The CMV envelope glycoprotein B (GBVP) binding assay described above was used to screen a synthetic chemical compound collection on 96-well plates. The compound collection was purchased from ChemDiv Inc. (San Diego, Calif.). […] Individual compounds at a final concentration of 30 or 100 μM were co-incubated with the GBVP on plates containing immobilized heparin and, following washing, bound GBVP was detected with anti-CMV GBVP antibody and secondary antibody conjugated to horseradish peroxidase, as described above. Following color development, the % inhibition compared to control (no compound) for every compound was determined. Compounds that inhibited at least 30% of the signal were scored as hits.

[5] = test system: BALB/c mice; experiment: Thioglycollate-induced leukocyte and neutrophil infiltration into mouse peritoneum; assay type: in vivo; settings: 10 mg/kg i.p.
Protocol: BALB/c mice (Velaz, Prague; 6 weeks old, ˜20 g in weight, 15 mice/group) received intraperitoneal injection of an inhibitor compound in 0.2 ml DMSO/Tween/sterile saline 1 hour before administration of thioglycollate (Sigma). Control groups received vehicle and sham controls received no thioglycollate. Mice were injected intraperitoneally with 1 ml of 3% thioglycollate broth (Xie, X. et al., J. Biol. Chem., 275, 34818-34825, 2000). Mice were sacrificed after 3 hours, and the peritoneal cavities were lavaged with 5 ml of ice-cold saline containing 2 mM EDTA to prevent clotting. After red blood cell lysis, leukocytes were counted in a hemocytometer. Neutrophils were counted after staining with Türck's reagent (Merck, Darmstadt, Germany). Data was expressed as mean ±SEM, and statistical analysis was performed by Student t test. A value of p<0.05 was taken to denote statistical significance.

Compound: CCCCCn1c(SCc2ccncc2)nc2cc(C(=O)N3CCN(C(=O)OCC)CC3)ccc2c1=O [Compound 7, 4-[[3,4-dihydro-4-oxo-3-pentyl-2-[(4-pyridinylmethyl)thio]-7-quinazolinyl]carbonyl]-1-piperazinecarboxylic acid ethyl ester]
inhibition at 30 µM [1]: 83%

Compound: Cc1ccc(CSc2nc3cc(C(=O)NCCCN4CCOCC4)ccc3c(=O)n2-c2ccc(F)cc2)cc1 [Compound 2, 2-[[(4-methylphenyl)methyl]thio]-3-(4-fluorophenyl)-3,4-dihydro-4-oxo-N-[3-(4-morpholinyl)propyl]-7-quinazolinecarboxamide]
Inhibition of DTH (difference in ear thickness) [3]: inhibited DTH
IC50 [1]: 24 ± 1.2 µM
inhibition at 100 µM [4]: 86%

Compound: O=C(NCCCN1CCOCC1)c1ccc2c(=O)n(-c3ccc(F)cc3)c(SCc3cccc(F)c3)nc2c1 [Compound 3, 2-[[(3-fluorophenyl)methyl]thio]-3-(4-fluorophenyl)-3,4-dihydro-4-oxo-N-[3-(4-morpholinyl)propyl]-7-quinazolinecarboxamide]
IC50 [1]: 22 ± 1.2 µM
inhibition at 30 µM [4]: 85%
inhibition at 100 µM [4]: 88%

Compound: O=C(CSc1nc2cc(C(=O)NCCCN3CCCCC3)ccc2c(=O)n1CC1CCCO1)c1ccccc1 (stereo not shown) [Compound 6, 2-[(2-oxo-2-phenylethyl)thio]-3-[(tetrahydro-2-furanyl)methyl]-3,4-dihydro-4-oxo -N-[3-(1-piperidinyl)propyl]-7-quinazolinecarboxamide]
inhibition at 30 µM [1]: 30%

Compound: O=C(NCCCN1CCOCC1)c1ccc2c(=O)n(-c3ccc(F)cc3)c(SCc3ccc(Cl)cc3)nc2c1 [Compound 1, 2-[[(4-chlorophenyl)methyl]thio]-3-(4-fluorophenyl)-3,4-dihydro-4-oxo-N-[3-(4-morpholinyl)propyl]-7-quinazolinecarboxamide]
IC50 [1]: 7 ± 1 µM
inhibition at 30 µM [4]: 33%
Leukocyte migration into the peritoneal cavity ([5]; 1 hour before thioglycollate, 3 hours): inhibited efficiently
Neutrophil accumulation in the peritoneal cavity ([5]; 3 hours after thioglycollate): 48 % of control value
Inhibition of paw edema (difference in paw thickness) ([2]; 1 mg/kg oral, 24 hours after induction): inhibited paw edema

Compound: COCCNC(=O)c1ccc2c(=O)n(Cc3ccco3)c(SCc3cc(=O)n4ccccc4n3)nc2c1 [Compound 5, 2-[[(4-oxo-4H-pyrido [1,2-a]pyrimidin-2-yl)methyl]thio]-3-(2-furanylmethyl) -3,4-dihydro-4-oxo-N-(2-methoxyethyl)-7-quinazolinecarboxamide]
inhibition at 30 µM [1]: 50%
inhibition at 100 µM ([1]; read-out: % Inhibition at 100 microMolar conc. (L-Selectin binding to heparin)): 52%

Now from value to compound, other results behind:

IC50 [1]: 21 ± 1.6 µM
Compound: CC(C)Cn1c(S)nc2cc(C(=O)NCCCn3ccnc3)ccc2c1=O [Compound 9, 2-mercapto-3-(2-methylpropyl-3)-3,4-dihydro-4-oxo-N-[3-(1N-imidazol-1-yl)propyl]-7-quinazolinecarboxamide]
Inhibition of paw edema (difference in paw thickness) ([2]; 50 mg/kg oral, measured after 24 hours): inhibited paw edema

IC50 [1]: 22 ± 1.5 µM
Compound: CN1CCN(C(=O)c2ccc3c(=O)n(-c4ccccc4)c(SCC(=O)C(C)(C)C)nc3c2)CC1 [Compound 10]

% Inhibition at 30 microMolar conc. (L-Selectin binding to heparin) ([1]; 30 microMolar): 59%
Compound: 2-[[2-[[(3-chlorophenyl)methyl]thio]-3-pentyl-3,4-dihydro-4-oxo-N-(4-methylpiperazin -7-quinazolinecarboxamide [Compound 8]
